Peptide text beside a SMILES is read from it.
target: hog kidney renin (Sus scrofa, UniProt A0A287APG1); experiment: Hog renin inhibition; format: biochemical; settings: pH 7.3, concentration producing 50% inhibition of renin activity, read-out: I50
Protocol: An assay was carried out in order to determine the inhibitory potency of the peptides of the present invention. The assay measured the inhibition of hog kidney renin, and was in accordance with the procedure described in Rich et al., J. Med. Chem. 23: 27, 1980, except that a pH of 7.3 was used. The results of the assay, illustrated in the table below, are expressed as I50 values, which refers to the concentration of peptide inhibitor necessary to produce 50% inhibition of renin activity. This I50 value is obtained typically by plotting data from four inhibitor concentrations. Pepstatin was used as an active control.

Sequence of hog kidney renin (A0A287APG1 67-407): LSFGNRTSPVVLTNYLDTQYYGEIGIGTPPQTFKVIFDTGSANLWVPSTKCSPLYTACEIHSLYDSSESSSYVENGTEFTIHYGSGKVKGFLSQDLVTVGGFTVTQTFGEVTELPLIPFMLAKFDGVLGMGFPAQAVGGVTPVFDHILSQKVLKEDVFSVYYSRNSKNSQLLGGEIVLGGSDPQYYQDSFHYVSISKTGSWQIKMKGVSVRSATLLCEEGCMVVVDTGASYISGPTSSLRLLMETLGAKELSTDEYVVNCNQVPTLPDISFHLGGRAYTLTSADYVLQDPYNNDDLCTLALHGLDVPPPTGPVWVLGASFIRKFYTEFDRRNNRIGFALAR

IC50 [nM] | Compound
1700 | CC(C)C[C@@H]1NC(=O)C[C@H](O)[C@H](CC(C)C)NC(=O)[C@@H](NC(=O)[C@H](Cc2ccccc2)NC(=O)[C@@H]2CCCN2C(=O)[C@H](Cc2c[nH]cn2)NC(=O)C(C)C)CCCCNC(=O)CNC(=O)[C@H](Cc2ccccc2)NC1=O (HELM PEPTIDE1{[CC(C)C(=O)[*:2]].H.P.F.K.[CC(C)C[C@H](N[*:1])[C@@H](O)CC(=O)[*:2]].L.F.G}$PEPTIDE1,PEPTIDE1,5:R3-9:R2$$$V2.0)
7100 | CC(C)C[C@@H]1NC(=O)C[C@H](O)[C@H](CC(C)C)NC(=O)[C@@H](NC(=O)[C@H](Cc2ccccc2)NC(=O)[C@@H]2CCCN2C(=O)[C@H](Cc2c[nH]cn2)NC(=O)C(C)C)CCNC(=O)CNC(=O)[C@H](Cc2ccccc2)NC1=O (HELM PEPTIDE1{[CC(C)C(=O)[*:2]].H.P.F.[Dab].[CC(C)C[C@H](N[*:1])[C@@H](O)CC(=O)[*:2]].L.F.G}$PEPTIDE1,PEPTIDE1,5:R3-9:R2$$$V2.0)
2800 | CC(C)C[C@@H]1NC(=O)C[C@H](O)[C@H](CC(C)C)NC(=O)[C@@H](NC(=O)[C@H](Cc2ccccc2)NC(=O)[C@@H]2CCCN2C(=O)[C@H](Cc2c[nH]cn2)NC(=O)C(C)C)CCCNC(=O)CNC(=O)[C@H](Cc2ccccc2)NC1=O (HELM PEPTIDE1{[CC(C)C(=O)[*:2]].H.P.F.[Orn].[CC(C)C[C@H](N[*:1])[C@@H](O)CC(=O)[*:2]].L.F.G}$PEPTIDE1,PEPTIDE1,5:R3-9:R2$$$V2.0)
24000 | CC(C)C[C@@H]1NC(=O)C[C@H](O)[C@H](CC(C)C)NC(=O)[C@@H](NC(=O)[C@H](Cc2ccccc2)NC(=O)[C@@H]2CCCN2C(=O)[C@H](Cc2c[nH]cn2)NC(=O)C(C)C)CCCNC(=O)[C@H](Cc2ccccc2)NC1=O (HELM PEPTIDE1{[CC(C)C(=O)[*:2]].H.P.F.[Orn].[CC(C)C[C@H](N[*:1])[C@@H](O)CC(=O)[*:2]].L.F}$PEPTIDE1,PEPTIDE1,5:R3-8:R2$$$V2.0)
26 | CC(C)C[C@@H]1NC(=O)C[C@H](O)[C@H](Cc2ccccc2)NC(=O)[C@@H](NC(=O)C(CCCc2ccccc2)Cc2ccccc2)CCCCNC(=O)[C@H](Cc2ccccc2)NC1=O (single isomer, unassigned) [drawing 38]
230 | CC(C)C[C@@H]1NC(=O)C[C@H](O)[C@H](CC(C)C)NC(=O)[C@@H](NC(=O)[C@H](Cc2ccccc2)NC(=O)[C@@H]2CCCN2C(=O)[C@H](Cc2c[nH]cn2)NC(=O)C(C)C)CCCCNC(=O)[C@H](Cc2ccccc2)NC1=O [drawing 31] (HELM PEPTIDE1{[CC(C)C(=O)[*:2]].H.P.F.K.[CC(C)C[C@H](N[*:1])[C@@H](O)CC(=O)[*:2]].L.F}$PEPTIDE1,PEPTIDE1,5:R3-8:R2$$$V2.0)
450 | CC(C)C[C@@H]1NC(=O)C[C@H](O)[C@H](CC(C)C)NC(=O)[C@@H](NC(=O)[C@H](Cc2ccccc2)NC(=O)OC(C)(C)C)CCCCNC(=O)[C@H](Cc2ccccc2)NC1=O [drawing 37] (HELM PEPTIDE1{[CC(C)(C)OC(=O)[*:2]].F.K.[CC(C)C[C@H](N[*:1])[C@@H](O)CC(=O)[*:2]].L.F}$PEPTIDE1,PEPTIDE1,3:R3-6:R2$$$V2.0)

target: T1, human kidney renin (Homo sapiens, UniProt P00797); experiment: Human renin inhibition; format: biochemical; settings: purified human kidney renin; dissociation constant of enzyme-inhibitor complex
T1 construct: human kidney renin purified as described in Bangham; from tissue; host or cells: human kidney
T1 sequence (P00797 67-406): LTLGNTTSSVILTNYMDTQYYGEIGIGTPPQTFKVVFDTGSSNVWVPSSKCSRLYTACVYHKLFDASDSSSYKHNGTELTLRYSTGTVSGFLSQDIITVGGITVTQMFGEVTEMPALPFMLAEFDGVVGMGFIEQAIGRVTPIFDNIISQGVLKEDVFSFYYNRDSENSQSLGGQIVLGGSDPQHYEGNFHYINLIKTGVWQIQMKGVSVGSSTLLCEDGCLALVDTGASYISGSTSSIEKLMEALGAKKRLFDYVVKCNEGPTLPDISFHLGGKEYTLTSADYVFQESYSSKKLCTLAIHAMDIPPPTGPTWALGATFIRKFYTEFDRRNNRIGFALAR
Protocol: An assay was carried out in order to determine the inhibitory potency of the peptides of the present invention. The assay measured the inhibition of human kidney renin purified as described in Bangham, D. R., Robertson, I., Robinson, J. I. S., Robinson, C. J., and Tree, M., Clinical Science and Molecular Medicine, 48 (Supp. 2): 136s-159s (1975), and further purified by affinity chromatography on pepstatin-aminohexyl-Sepharase as describe in Poe, M., Wu., J. K., Florance, J. R., Radkey, J. A., Bennett, C. D., and Hoagsteen, K., J. Biol. Chem. (1982, in press). The assay was also in accordance with Poe et al. cited above. Results are expressed as KI values, which refer to the dissociation constant of the inhibited enzyme-inhibitor complex. This KI value was obtained as described above. Pepstatin was used as an active control.

Ki [nM] | Compound
190 | CC(C)C[C@@H]1NC(=O)C[C@H](O)[C@H](Cc2ccccc2)NC(=O)[C@@H](NC(=O)C(CCCc2ccccc2)Cc2ccccc2)CCCCNC(=O)[C@H](Cc2ccccc2)NC1=O (single isomer, unassigned) [drawing 41]
55 | CC(C)C[C@@H]1NC(=O)C[C@H](O)[C@H](CC(C)C)NC(=O)[C@@H](NC(=O)[C@H](Cc2ccccc2)NC(=O)[C@@H]2CCCN2C(=O)[C@H](Cc2c[nH]cn2)NC(=O)C(C)C)CCCCNC(=O)[C@H](Cc2ccccc2)NC1=O [drawing 39] (HELM PEPTIDE1{[CC(C)C(=O)[*:2]].H.P.F.K.[CC(C)C[C@H](N[*:1])[C@@H](O)CC(=O)[*:2]].L.F}$PEPTIDE1,PEPTIDE1,5:R3-8:R2$$$V2.0)
64 | CC(C)C[C@@H]1NC(=O)C[C@H](O)[C@H](CC(C)C)NC(=O)[C@@H](NC(=O)[C@H](Cc2ccccc2)NC(=O)OC(C)(C)C)CCCCNC(=O)[C@H](Cc2ccccc2)NC1=O [drawing 40] (HELM PEPTIDE1{[CC(C)(C)OC(=O)[*:2]].F.K.[CC(C)C[C@H](N[*:1])[C@@H](O)CC(=O)[*:2]].L.F}$PEPTIDE1,PEPTIDE1,3:R3-6:R2$$$V2.0)

tested on: hog renin; experiment: not given; settings: nephrectomized rats after injection of hog renin (Gross et al. 1971); cited from earlier work

Compound | blood pressure in vivo
Pepstatin | reduce blood pressure in vivo

Reference: patent US4782043A, “Renin inhibitors containing a C-terminal amide cycle” (Merck & Co., Inc., priority 1985, dated 1988)
